{"source": "patent US8501743B2", "about": "“Personal care composition” (Conopco, Inc., priority 2007, dated 2013)", "key": {"[1]": {"conditions": "cited from earlier work"}, "[2]": {"tested_on": "Malassezia furfur CBS 7019", "test": "Formulation bio-efficacy (Malassezia kill) by Vitro-Skin assay", "assay_type": "cell-based", "conditions": "FIG. 5", "protocol": "Assessment of Formulation Bio-Efficacy (Malassezia Kill) by Vitro-Skin™ Assay Formulation bio-efficacy was assessed using an in vitro substantivity assay which evaluates the effectiveness of actives in shampoo and conditioners using Malassezia furfur CBS 7019 as the organism. Malassezia furfur for the inoculation of artificial skin were initially grown in Pityrosporum Broth, and added to molten agar slurry immediately prior to the inoculation of the Vitro-Skin™ at a final concentration of 1-3×10^5 cells/ml. Vitro-Skin™ was placed onto a Modified Dixon Agar Plate (1 skin per plate), and 0.5 ml of agar slurry inoculum was gently pipetted onto the rough surface of the skin, in a film 1-2 mm deep. After the agar had gelled, the plates were placed in an incubator (32° C.) for 24 h. Following incubation, each piece of Vitro-Skin™ was carefully folded in half (inoculum on the inside) using sterile forceps, and placed a vial containing 10 ml of Butterfield's phosphate buffer (pH 7.2), 0.1% Triton X-100, 0.5% Tween and 0.08% lecithin. The vial was vortexed for 1 min (high setting), and 1 ml of this sample (10°) then added to 9 ml of 0.1% peptone (in water: 10^−1 sample). This sample was then serially diluted to 10^−5 in 0.1% peptone. For immediate controls, 0.1 ml of 10^0-10^−4 dilutions were plated onto Modified Dixon Agar Plates. For 24 h incubated samples, 0.1 ml of 10^0-10^−5 dilutions were plated onto Modified Dixon Agar Plates, and incubated at 32° C. for 4-5 days. The number of colonies on each plate were then counted, and final numbers determined by multiplying by the appropriate dilution."}, "[3]": {"conditions": "0.2% active alone in shampoo formula 1"}}, "data": [{"smiles": "CC(=O)N1CCN(c2ccc(OC[C@@H]3CO[C@@](Cn4ccnc4)(c4ccc(Cl)cc4Cl)O3)cc2)CC1", "note": "[ketoconazole, 1-[4-[4-[[(2S,4R)-2-(2,4-dichlorophenyl)-2-(imidazol-1-ylmethyl)-1,3-dioxolan-4-yl]methoxy]phenyl]piperazin-1-yl]ethanone]", "values": [{"measurement": "solubility in ethanol", "setting": "[1]; ethanol, ambient temperature", "value": "soluble"}, {"measurement": "solubility in water", "setting": "[1]; water", "value": "virtually insoluble"}, {"measurement": "microkill (Malassezia furfur kill)", "setting": "[2]; 0.1% active alone in shampoo formula 1", "value": "relatively ineffective"}, {"measurement": "microkill (Malassezia furfur kill)", "setting": "[2]; [3]", "value": "highly effective"}]}, {"smiles": "CC1CCC(C(C)C)C(O)C1", "note": "(stereo not drawn) [menthol]", "values": [{"measurement": "microkill (Malassezia furfur kill)", "setting": "[2]; [3]", "value": "relatively ineffective"}]}, {"smiles": "O=C(O)c1ccccc1O", "note": "[salicylic acid]", "values": [{"measurement": "microkill (Malassezia furfur kill)", "setting": "[2]; [3]", "value": "relatively ineffective"}]}]}
